Data as given in patent US9676701B2, “Cyclopropylamine derivatives useful as LSD1 inhibitors” (Oryzon Genomics, S.A., priority 2010, dated 2017).
Counter-ions that a name gives are not always drawn. Like-named read-outs stand apart in the source and are kept apart here.

Experiments:
MAO-B = MAO-B (Homo sapiens (Human), UniProt P27338); details: read-out: MAO-B (Ki)
[1] = target: T1, Human recombinant LSD1 protein (Homo sapiens (Human), UniProt O60341); details: for Ki: read-out: LSD1 (Ki)
MAO-A [2] = target: T2, MAO-A (Homo sapiens (Human), UniProt P21397); details: read-out: MAO-A (Ki)
[3] = target: T1, Human recombinant LSD1 protein; assay: biochemical
MAO-A [4] = target: T2, MAO-A; assay: biochemical

MAO-B, sequence (P27338 whole entry): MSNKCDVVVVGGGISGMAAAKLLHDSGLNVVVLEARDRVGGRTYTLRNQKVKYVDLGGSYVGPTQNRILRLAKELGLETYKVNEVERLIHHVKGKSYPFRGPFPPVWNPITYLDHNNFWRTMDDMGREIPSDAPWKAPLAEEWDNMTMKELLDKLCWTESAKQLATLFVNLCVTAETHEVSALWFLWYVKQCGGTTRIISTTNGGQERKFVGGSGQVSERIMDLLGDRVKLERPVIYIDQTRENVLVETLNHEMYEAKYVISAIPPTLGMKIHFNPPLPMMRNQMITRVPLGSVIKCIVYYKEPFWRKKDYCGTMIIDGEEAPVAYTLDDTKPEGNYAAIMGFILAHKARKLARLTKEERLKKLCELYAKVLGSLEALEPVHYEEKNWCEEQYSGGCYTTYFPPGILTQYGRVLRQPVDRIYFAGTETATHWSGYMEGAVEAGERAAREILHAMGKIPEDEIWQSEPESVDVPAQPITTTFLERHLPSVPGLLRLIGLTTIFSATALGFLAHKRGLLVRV
T2 sequence (P21397 whole entry): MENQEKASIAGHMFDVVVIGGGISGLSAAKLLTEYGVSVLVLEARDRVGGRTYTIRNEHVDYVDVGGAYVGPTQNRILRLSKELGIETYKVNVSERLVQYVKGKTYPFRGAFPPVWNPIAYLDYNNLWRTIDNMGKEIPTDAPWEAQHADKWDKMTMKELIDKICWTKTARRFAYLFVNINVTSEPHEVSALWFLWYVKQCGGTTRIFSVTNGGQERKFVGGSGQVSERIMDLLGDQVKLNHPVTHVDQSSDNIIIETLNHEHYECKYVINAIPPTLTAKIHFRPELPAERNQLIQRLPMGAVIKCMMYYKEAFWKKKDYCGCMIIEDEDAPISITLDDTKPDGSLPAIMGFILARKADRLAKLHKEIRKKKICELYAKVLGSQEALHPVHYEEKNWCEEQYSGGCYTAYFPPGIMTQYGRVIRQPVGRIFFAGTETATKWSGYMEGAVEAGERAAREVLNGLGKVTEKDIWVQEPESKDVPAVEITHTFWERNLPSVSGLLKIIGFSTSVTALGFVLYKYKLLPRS

Row | SMILES | Ki (MAO-B) | Ki [1] | Ki (MAO-A [2]) | Ki [3] | LSD1 (Ki) [1] | Ki (MAO-A [4])
1 | N#Cc1ccc(O)c(-c2ccc([C@H]3C[C@@H]3N)cc2)c1 (relative stereo) [Example 87, 4′-((trans)-2-aminocyclopropyl)-6-hydroxybiphenyl-3-carbonitrile hydrochloride] | – | – | – | – | – | 100 to 1000 nM
2 | N#Cc1ccc(O)c(-c2ccc([C@H]3C[C@@H]3N)cn2)c1 (relative stereo) [Example 89, 3-(5-((trans)-2-aminocyclopropyl)pyridin-2-yl)-4-hydroxybenzonitrile hydrochloride] | – | – | – | – | – | 100 to 1000 nM
3 | CS(=O)(=O)Nc1cc(Cl)cc(-c2ccc([C@H]3C[C@@H]3N)cn2)c1 (relative stereo) [Example 95, N-(3-(5-((trans)-2-aminocyclopropyl)pyridin-2-yl)-5-chlorophenyl)methanesulfonamide hydrochloride] | – | – | – | – | – | 100 to 1000 nM
4 | CS(=O)(=O)Nc1cc(-c2ccc([C@H]3C[C@@H]3N)cc2)ccc1F (relative stereo) [Example 96, N-(4′-((trans)-2-aminocyclopropyl)-4-fluoro-[1,1′-biphenyl]-3-yl)methanesulfonamide hydrochloride] | 1000 to 40000 nM | – | – | 1 to 100 nM | – | 100 to 1000 nM
5 | CS(=O)(=O)Nc1cc(-c2ccc([C@H]3C[C@@H]3N)cn2)ccc1F (relative stereo) [Example 97, N-(5-(5-((trans)-2-aminocyclopropyl)pyridin-2-yl)-2-fluorophenyl)methanesulfonamide hydrochloride] | 1000 to 40000 nM | – | 1000 to 40000 nM | 100 to 1000 nM | – | –
6 | CCS(=O)(=O)Nc1cccc(-c2ccc([C@H]3C[C@@H]3N)cn2)c1 (relative stereo) [Example 98, N-(3-(5-((trans)-2-aminocyclopropyl)pyridin-2-yl)phenyl)ethanesulfonamide hydrochloride] | 1000 to 40000 nM | – | 1000 to 40000 nM | 1 to 100 nM | – | –
7 | N#Cc1cccc(S(=O)(=O)Nc2cccc(-c3ccc([C@H]4C[C@@H]4N)cn3)c2)c1 (relative stereo) [Example 100, N-(3-(5-((trans)-2-aminocyclopropyl)pyridin-2-yl)phenyl)-3-cyanobenzenesulfonamide hydrochloride] | – | – | – | – | – | 100 to 1000 nM
8 | COc1cc(-c2cccc(O)c2)ccc1[C@H]1C[C@@H]1N (relative stereo) [Example 106, 4′-((trans)-2-aminocyclopropyl)-3′-methoxy-[1,1′-biphenyl]-3-ol hydrochloride] | 1000 to 40000 nM | – | – | 100 to 1000 nM | – | 100 to 1000 nM
9 | N[C@H]1C[C@@H]1c1cnc(-c2cccc(O)c2)s1 (relative stereo) [Example 116, 3-(5-((trans)-2-aminocyclopropyl)thiazol-2-yl)phenol hydrochloride] | 1000 to 40000 nM | – | – | 1 to 100 nM | – | 1 to 100 nM
10 | N#Cc1ccccc1S(=O)(=O)Nc1cccc(-c2ncc([C@H]3C[C@@H]3N)s2)c1 (relative stereo) [Example 124, N-(3-(5-((trans)-2-aminocyclopropyl)thiazol-2-yl)phenyl)-2-cyanobenzenesulfonamide dihydrochloride] | 1000 to 40000 nM | – | 1000 to 40000 nM | 1 to 100 nM | – | –
11 | CNS(=O)(=O)c1cccc(-c2ccc([C@H]3C[C@@H]3N)cn2)c1 [Example 104, hydrochloride] | 1000 to 40000 nM | – | – | – | – | 100 to 1000 nM

Results, then the compound that gave them:

Row | Ki (MAO-B) | Ki [1] | Ki (MAO-A [2]) | Ki [3] | LSD1 (Ki) [1] | Ki (MAO-A [4]) | SMILES
12 | 1000 to 40000 nM | 1000 to 40000 nM | 1000 to 40000 nM | – | – | – | NC(=O)c1ccc(-c2ccc([C@H]3C[C@@H]3N)cn2)cc1 (relative stereo) [Example 18, 4-(5-((trans)-2-aminocyclopropyl)pyridin-2-yl)benzamide hydrochloride]
13 | 1000 to 40000 nM | 1000 to 40000 nM | 1000 to 40000 nM | – | – | – | Cc1cc([C@H]2C[C@@H]2N)cnc1-c1cccc(Cl)c1 (relative stereo) [Example 36, (trans)-2-(6-(3-chlorophenyl)-5-methylpyridin-3-yl)cyclopropanamine]
14 | 1000 to 40000 nM | 1000 to 40000 nM | 1000 to 40000 nM | – | – | – | Cc1cc([C@H]2C[C@@H]2N)cnc1-c1cccc(C(F)(F)F)c1 (relative stereo) [Example 37, (trans)-2-(5-methyl-6-(3-(trifluoromethyl)phenyl)pyridin-3-yl)cyclopropanamine hydrochloride]
15 | 1000 to 40000 nM | – | 1000 to 40000 nM | 1 to 100 nM | – | – | N#Cc1ccc(-c2ccc([C@H]3C[C@@H]3N)cn2)s1 (relative stereo) [Example 56, 5-(5-((trans)-2-aminocyclopropyl)pyridin-2-yl)thiophene-2-carbonitrile hydrochloride]
16 | 1000 to 40000 nM | – | 1000 to 40000 nM | 100 to 1000 nM | – | – | Cc1cscc1-c1ccc([C@H]2C[C@@H]2N)cn1 (relative stereo) [Example 57, (trans)-2-(6-(4-methylthiophen-3-yl)pyridin-3-yl)cyclopropanamine hydrochloride]
17 | 1000 to 40000 nM | – | 1000 to 40000 nM | 100 to 1000 nM | – | – | COc1cc(-c2ccc([C@H]3C[C@@H]3N)cn2)cc(F)c1F (relative stereo) [Example 58, (Trans)-2-(6-(3,4-difluoro-5-methoxyphenyl)pyridin-3-yl)cyclopropanamine hydrochloride]
18 | 1000 to 40000 nM | – | 1000 to 40000 nM | – | II-III | – | Cl.N[C@H]1C[C@@H]1c1ccc(-c2ccc3cn[nH]c3c2)nc1 (relative stereo) [Example 60, (Trans)-2-(6-(1H-indazol-6-yl)pyridin-3-yl)cyclopropanamine hydrochloride]
19 | 1000 to 40000 nM | – | 1000 to 40000 nM | 100 to 1000 nM | – | – | N[C@H]1C[C@@H]1c1ccc(-c2ccc3c(c2)NC(=O)C3)nc1 (relative stereo) [Example 62, 6-(5-((trans)-2-aminocyclopropyl)pyridin-2-yl)indolin-2-one hydrochloride]
20 | 1000 to 40000 nM | – | 1000 to 40000 nM | 1 to 100 nM | – | – | CC(C)S(=O)(=O)Nc1cccc(-c2ccc([C@H]3C[C@@H]3N)cn2)c1 (relative stereo) [Example 65, N-(3-(5-((trans)-2-aminocyclopropyl)pyridin-2-yl)phenyl)propane-2-sulfonamide hydrochloride]
21 | 1000 to 40000 nM | – | 1000 to 40000 nM | 100 to 1000 nM | – | – | CS(=O)(=O)Nc1ccccc1-c1ccc([C@H]2C[C@@H]2N)cn1 (relative stereo) [Example 71, N-(2-(5-((trans)-2-aminocyclopropyl)pyridin-2-yl)phenyl)methanesulfonamide hydrochloride]
22 | 1000 to 40000 nM | – | 1000 to 40000 nM | 100 to 1000 nM | – | – | COc1ccc(C#N)cc1-c1ccc([C@H]2C[C@@H]2N)cn1 (relative stereo) [Example 72, 3-(5-((trans)-2-aminocyclopropyl)pyridin-2-yl)-4-methoxybenzonitrile hydrochloride]
23 | 1000 to 40000 nM | – | 1000 to 40000 nM | 100 to 1000 nM | – | – | N[C@H]1C[C@@H]1c1ccc(-c2cccc(C(F)(F)F)c2)nc1Cl (relative stereo) [Example 76, (trans)-2-(2-chloro-6-(3-(trifluoromethyl)phenyl)pyridin-3-yl)cyclopropanamine hydrochloride]
24 | 1000 to 40000 nM | – | 1000 to 40000 nM | 100 to 1000 nM | – | – | Cc1nc(-c2cccc(C(F)(F)F)c2)ccc1[C@H]1C[C@@H]1N (relative stereo) [Example 80, (trans)-2-(2-methyl-6-(3-(trifluoromethyl)phenyl)pyridin-3-yl)cyclopropanamine hydrochloride]
